Measured values taken from patent US20210113650A1, “NANOMOLECULES FOR THE TREATMENT OF INFLAMMATORY BOWEL DISEASES” (Northwestern University, priority 2018, published 2021).
*: point of attachment. Palmitoyl = CCCCCCCCCCCCCCCC(=O)*

Key:
Format in all cases: in vivo, mouse
[1] = system: SAMP1/YitFcsJ mice (Crohn's mice); assay: Cell/marker and cytokine expression in intestinal tissue after direct injection into inflamed intestinal lesions; conditions: 5 weeks post-surgery, compared to AIF-PAC and saline injected control animals
Method: (§1) In order to treat inflammatory lesions that have formed in the intestinal tracts, the following was performed:
(§2) Mice (10 weeks of age, female) were brought to the operating room where they were weighed, the abdomen shaved to remove hair, and given Buprenorphine (0.05 mg/kg) administered subcutaneously. At the time of surgery, anesthesia was induced with isoflurane (2%) with 02 and the mice were prepped with providine-iodine three times prior to initiating the operation. All mice received a 100 mg/kg dose of IP piperacillin/tazobactam IP followed by a midline abdominal incision (1.0-1.5 cm) made in the linea albea to gain access to the peritoneum. The intestines were then identified in the peritoneal cavity. Following intestinal exposure and identification of intestinal lesions, the anti-inflammatory peptide amphiphiles, [AIF-PA1 (treatment; 2 wt/%) or AIF-PAC (control; 2 wt/%)] or saline (control) were independently injected (20-40 μl) into multiple lesions of the several SAMP1/YitFcsJ mice. Following the surgical procedure, organs were relocated to their original anatomical positions. The abdomen was closed in 2 layers (muscle and skin) with 3-0 PDS suture. After recovery, they were placed back into cages with non-edible bedding and provided ad lib water and liquid diet for the first 7 post-operative days and then returned to ad lib chow. Animals were sacrificed at the 15 weeks of age. Animals were euthanized 5 weeks post-surgery and intestinal tissue was explanted, sectioned and stained with relevant inflammation based antibodies. Tissue samples were subsequently quantified, and the results are depicted in FIGS. 1-3.

[2] = system: SAMP1/YitFcsJ mice (Crohn's mice); assay: Inflammatory intestinal lesion size after direct injection into inflamed intestinal lesions; conditions: 5 weeks post-injection, pre- versus post-injection, compared to AIF-PAC and saline injected control animals
Method: as §1
as §2, with “After recovery, they were placed back into cages with non-edible bedding and provided ad lib water and liquid diet for the first 7 post-operative days and then returned to ad lib chow. Animals were sacrificed at the 15 weeks of age. Animals were euthanized 5 weeks post-surgery and intestinal tissue was explanted, sectioned and stained with relevant inflammation based antibodies.” left out

[3] = system: SAMP1/YitFcsJ mice (Crohn's mice); assay: Cell/marker and cytokine expression in intestinal tissue after systemic (tail vein) injection; conditions: 5 weeks, compared to AIFC-PA6/LDT and untreated control animals
Method: as §1
Mice (10 weeks of age, female; n=4-7 per group) were brought to the animal holding/surgical room where they were weighed. Animals were placed in a restrainer and independently injected with the aforementioned anti-inflammatory peptide amphiphiles, [AIF-PA1/LDT (treatment; 1 mM) or AIFC-PA6/LDT (control; 1 mM] or untreated/no treatment control group. Approximately 100 μl of solution was injected into the tail vein of the mice. Animals were sacrificed at the 15 weeks of age. Animals were euthanized 5 weeks post-surgery and intestinal tissue was explanted, sectioned and stained with relevant inflammation based antibodies and data was quantified. Gross tissue samples were examined for pathology. Quantified data and results are summarized in FIGS. 4-6.

**Q.** “C16-VVVAAAEEEMQMKKVLDS (Palmitoyl-VVVAAAEEEMQMKKVLDS-NH2; SMILES CCCCCCCCCCCCCCCC(=O)N[C@H](C(=O)N[C@H](C(=O)N[C@H](C(=O)N[C@@H](C)C(=O)N[C@@H](C)C(=O)N[C@@H](C)C(=O)N[C@@H](CCC(=O)O)C(=O)N[C@@H](CCC(=O)O)C(=O)N[C@@H](CCC(=O)O)C(=O)N[C@@H](CCSC)C(=O)N[C@@H](CCC(N)=O)C(=O)N[C@@H](CCSC)C(=O)N[C@@H](CCCCN)C(=O)N[C@@H](CCCCN)C(=O)N[C@H](C(=O)N[C@@H](CC(C)C)C(=O)N[C@@H](CC(=O)O)C(=O)N[C@@H](CO)C(N)=O)C(C)C)C(C)C)C(C)C)C(C)C) [AIF-PA1]” was tested. Which “CD68 (macrophages) expression” value ([1]; 2 wt/%, 20-40 μl) did it give?
**A.** The value was “statistically significant decrease”.

**Q.** And the MAdCAM1 expression ([1]; 2 wt/%, 20-40 μl)?
**A.** Its MAdCAM1 expression is “statistically significant decrease”.

**Q.** What about the “anti-inflammatory cytokine IL-10 expression” value ([1]; 2 wt/%, 20-40 μl) of the same substance?
**A.** Its value is “concomitant increase”.

**Q.** And the “mast cell tryptase (mast cells) expression” value ([1]; 2 wt/%, 20-40 μl)?
**A.** Its value is “statistically significant decrease”.

**Q.** And the IFNγ expression [1]?
**A.** Its IFNγ expression is “statistically significant decrease”.

**Q.** And the IL-1β expression [1]?
**A.** The IL-1β expression was “statistically significant decrease”.

**Q.** And the IL-13 expression [1]?
**A.** Its IL-13 expression is “statistically significant decrease”.

**Q.** What about the TNFα expression [1] of the same substance?
**A.** The TNFα expression was “statistically significant decrease”.

**Q.** And the “change in intestinal lesion size” value [2]?
**A.** Its value is “statistically significant decrease”.

**Q.** What about the IFNγ expression [3] of the same substance?
**A.** The IFNγ expression was “statistically significant decrease”.

**Q.** And the IL-1β expression [3]?
**A.** Its IL-1β expression is “statistically significant decrease”.

**Q.** What about the IL-13 expression [3] of the same substance?
**A.** Its IL-13 expression is “statistically significant decrease”.

**Q.** What about the TNFα expression [3] of the same substance?
**A.** The TNFα expression was “statistically significant decrease”.
